Here are results for two compounds from patent publication US20260258003A1, “SLACK-ACTIVATING COMPOUNDS AND THEIR MEDICAL USE” (Johann Wolfgang Goethe-Universität Frankfurt am Main, priority 2023, published 2026).

Structures are written as SMILES.

For experiment [1], the system named is SLIGRL-induced scratching behavior of mice. Kind of experiment: SLIGRL-induced acute itch model. In kind it is in vivo. The settings on record: 10 mg/kg i.p. The procedure:
Further studies were conducted to assess the in vivo efficacy of Compound 6 and Compound 10 in mice. In detail, experiments were performed in 8 to 16 weeks old C57BL/6N mice (Charles River, Sulzfeld, Germany) and animals with a genetic deletion of Slack (Slack^−/− mice^27) of either sex. Animals were housed on a 12 h light/dark cycle with access to food and water ad libitum. […]
Acute itch behavior of the mice was monitored using a histamine-based, chloroquine-based and SLIGRL-based acute itch behavior model. […] Numbers of scratching bouts directed to the nape of the neck were assessed over 30 min by videotaping.
Antipruritic efficacy of Compound 6 in histamine-independent itch evoked by SLIGRL injection: The chloroquine-induced scratching in mice is driven by activation of MrgprA3 in the NP2 population of sensory neurons^4,29. To further explore the antipruritic efficacy of Compound 6 in histamine-independent itch, the inventors assessed the behavioral response after s.c. injection of the peptide Ser-Leu-Ile-Gly-Arg-Leu (SLIGRL) that evokes scratching by activation of MrgprC11 (ref^30), which is expressed in the NP2 and NP3 population^4. […]

The test system of experiment [2] is chloroquine-induced scratching behavior of mice. As to the kind of experiment: Chloroquine-induced itch model, topical application of creme. Format: in vivo. The settings on record: 5% in hydrophilic creme (Basiscreme DAC), topical 30 min prior to s.c. chloroquine. The procedure:
Animals: Experiments were performed in 8-16 week-old C57BL/6N mice (Charles River, Sulzfeld, Germany) of either sex. The animals were housed under a 12 h light/dark cycle with access to food and water ad libitum. All experiments adhered to the Animal Research: Reporting on In Vivo Experiments (ARRIVE) guidelines and were approved by and conducted in accordance with the regulations of the local Animal Welfare authorities (Regierungspräsidium Darmstadt, Germany; approval number V54-19c20/15-FR/2011). All behavioral studies were conducted during the light cycle of the day at room temperature (20-24° C.) by an observer blinded for the treatment of the animals.
Drug formulation: A creme formulation of Compound 6 and Compound 21 was prepared by mixing a hydrophilic creme (Basiscreme DAC) with 5% of each Slack activator.
Behavioral assessment: Three to four days before the day of the experiment, the fur on the dorsolateral aspect of the neck was shaved under brief isoflurane anesthesia. On the testing day, Compound 6 creme, Compound 21 creme, or creme vehicle were applied topically on the shaved region of the neck under brief isoflurane anesthesia and the mice were habituated to a Plexiglas cylinder (30 cm in diameter) for 30 min immediately thereafter. […] The number of scratching bouts directed towards the nape of the neck was assessed over 30 min by videotaping.

In another experiment the target is T1, muscarine M3 receptor (Homo sapiens, UniProt P20309).
T1 construct: Eurofins SafetyScreen44
T1 sequence (P20309 whole entry): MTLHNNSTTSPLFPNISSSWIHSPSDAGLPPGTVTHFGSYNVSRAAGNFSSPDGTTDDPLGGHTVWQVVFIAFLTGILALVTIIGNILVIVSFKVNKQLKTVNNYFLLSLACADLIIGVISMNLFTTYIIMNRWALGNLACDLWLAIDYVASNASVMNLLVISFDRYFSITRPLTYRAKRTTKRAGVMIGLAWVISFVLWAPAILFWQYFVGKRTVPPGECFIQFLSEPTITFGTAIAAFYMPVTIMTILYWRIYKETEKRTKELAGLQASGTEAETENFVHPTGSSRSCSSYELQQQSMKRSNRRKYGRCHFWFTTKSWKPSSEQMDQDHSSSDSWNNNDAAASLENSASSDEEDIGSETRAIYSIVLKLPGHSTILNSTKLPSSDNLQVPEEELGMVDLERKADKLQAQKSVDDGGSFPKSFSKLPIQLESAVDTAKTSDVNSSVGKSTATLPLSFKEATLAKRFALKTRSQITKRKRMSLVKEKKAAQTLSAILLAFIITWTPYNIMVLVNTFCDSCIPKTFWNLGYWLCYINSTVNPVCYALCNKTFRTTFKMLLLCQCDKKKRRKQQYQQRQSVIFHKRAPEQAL
As to the kind of experiment: SafetyScreen44 binding. The following applies: substantial = higher than 50%.

Consider `O=C(O)COCCN1CCN(C2=Nc3ccccc3Oc3ccc(Cl)cc32)CC1` [Compound 6, 2-(2-(4-(2-Chlorodibenzo[b,f][1,4]oxazepin-11-yl)piperazin-1-yl)ethoxy) acetic acid], for which, in experiment [1], the SLIGRL-induced scratching behavior result is on record as “significantly inhibited”. For the same compound, the “chloroquine-induced scratching behavior after topical application” value in experiment [2] is “significantly ameliorated scratching behavior”.
In general, inhibition refers to the change of the read-out against control, counted positive when it falls. A low value points to a response near the control. In the case of `CN1CCN(C2=Nc3ccccc3Oc3ccc(Cl)cc32)CC1` [Loxapine, 2-chloro-11-(4-methylpiperazin-1-yl)dibenzo[b,f][1,4]oxazepine, reference compound], on muscarine M3 receptor, the inhibition at 10 µM was over 50%.
